Tests used:
Assay in all cases: relative viability (nuclei count vs DMSO), 5 days (fraction); higher = more cells survive
[1] = compound: CN1C=C(C2=CC=CC=C21)/C=C\3/C4=C(C=CC=N4)NC3=O + Cc1nc(NC(=O)N2CCC[C@H]2C(N)=O)sc1-c1ccnc(C(C)(C)C(F)(F)F)c1 [Alpelisib] (partner 2 µM)
Outline: (§1)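 Lung cancer cell lines were pin-tool dosed in 1536-well plates on the day after seeding, with either a lone drug or a fixed anchor-drug dose plus five library-drug doses (not always all listed) in √10 steps. Nuclei were counted on 4× images after 5 days. Relative viability is the ratio of treated-well to vehicle-well nuclei counts, with each value a median of duplicate plates.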

[2] = compound: CN1C=C(C2=CC=CC=C21)/C=C\3/C4=C(C=CC=N4)NC3=O + CS(=O)(=O)N1CCN(Cc2cc3nc(-c4cccc5[nH]ncc45)nc(N4CCOCC4)c3s2)CC1 [Pictilisib] (partner 1 µM)
Outline: as §1

[3] = compound: CN1C=C(C2=CC=CC=C21)/C=C\3/C4=C(C=CC=N4)NC3=O + COc1cccc2cc(-c3nc([C@H]4CC[C@H](C(=O)O)CC4)n4ncnc(N)c34)[nH]c12 [OSI-027] (partner 0.5 µM)
Outline: as §1

[4] = compound: CN1C=C(C2=CC=CC=C21)/C=C\3/C4=C(C=CC=N4)NC3=O + CC(=O)Nc1cccc(-n2c(=O)n(C3CC3)c(=O)c3c(Nc4ccc(I)cc4F)n(C)c(=O)c(C)c32)c1 [Trametinib] (partner 0.02 µM)
Outline: as §1

Cell Line | relative viability ([1]; first compound 0.02 µM) | relative viability ([1]; first compound 0.06325 µM) | relative viability ([1]; first compound 0.6325 µM) | relative viability ([1]; first compound 2 µM) | relative viability ([2]; first compound 0.02 µM) | relative viability ([2]; first compound 0.06325 µM) | relative viability ([2]; first compound 0.6325 µM) | relative viability ([2]; first compound 2 µM) | relative viability ([3]; first compound 0.02 µM) | relative viability ([3]; first compound 0.06325 µM) | relative viability ([3]; first compound 0.2 µM) | relative viability ([3]; first compound 0.6325 µM) | relative viability ([3]; first compound 2 µM) | relative viability ([4]; first compound 0.02 µM) | relative viability ([4]; first compound 0.06325 µM) | relative viability ([4]; first compound 0.2 µM) | relative viability ([4]; first compound 0.6325 µM) | relative viability ([4]; first compound 2 µM) | relative viability ([1]; first compound 0.2 µM) | relative viability ([2]; first compound 0.2 µM)
NCI-H23 | 0.628 | 0.522 | 0.602 | 0.689 | 0.5 | 0.502 | 0.451 | 0.485 | 0.497 | 0.555 | 0.459 | 0.538 | 0.517 | 0.346 | 0.332 | 0.301 | 0.287 | 0.443 |  | 
NCI-H322M | 0.839 | 0.725 | 0.753 | 0.708 | 0.431 | 0.552 | 0.478 | 0.542 | 0.516 | 0.487 | 0.4 | 0.587 | 0.567 | 0.476 | 0.503 | 0.51 | 0.468 | 0.553 | 0.773 | 0.498
NCI-H358 | 0.824 | 0.776 | 0.833 | 0.791 | 0.33 | 0.319 | 0.338 | 0.387 | 0.756 | 0.67 | 0.768 | 0.851 | 0.689 | 0.12 | 0.127 | 0.116 | 0.136 | 0.117 | 0.752 | 0.301
NCI-H441 | 0.795 |  | 0.91 | 0.881 | 0.477 | 0.426 | 0.402 | 0.595 | 0.557 | 0.646 | 0.739 | 0.607 | 0.459 | 0.468 | 0.511 | 0.492 | 0.544 | 0.52 | 0.898 | 0.474
NCI-H460 | 0.539 | 0.466 |  | 0.391 | 0.508 | 0.324 | 0.292 | 0.335 | 0.81 | 0.726 | 0.649 | 0.63 | 0.676 | 0.304 | 0.158 | 0.0911 | 0.0905 | 0.12 | 0.53 | 0.285
NCI-H520 | 0.796 | 0.69 | 1.02 | 1.04 | 0.275 | 0.296 | 0.308 | 0.335 | 0.199 | 0.223 | 0.289 | 0.275 | 0.266 | 0.542 | 0.589 | 0.621 | 0.716 | 0.68 | 0.859 | 0.275
NCI-H596 | 0.545 | 0.413 | 0.49 | 0.493 | 0.333 | 0.322 | 0.392 | 0.396 | 0.656 | 0.764 | 0.566 | 0.692 | 0.633 | 0.741 | 0.781 | 0.755 | 0.744 | 0.867 | 0.529 | 0.421
NCI-H647 | 0.977 | 0.948 | 0.951 | 1.14 | 0.379 | 0.292 | 0.324 | 0.312 | 0.719 | 0.616 | 0.478 | 0.655 | 0.557 | 0.532 | 0.404 | 0.41 | 0.38 | 0.404 | 0.904 | 
NCI-H650 | 1.07 | 1.12 | 1.24 | 1.09 | 0.826 | 0.922 | 0.784 | 0.911 | 0.628 | 0.515 |  | 0.529 | 0.506 | 0.928 | 0.943 |  | 0.942 | 0.907 |  | 
NCI-H661 | 0.889 | 0.591 | 0.402 | 0.591 | 0.399 | 0.418 | 0.339 | 0.375 | 0.751 | 0.689 | 0.722 | 0.676 | 0.76 | 0.615 | 0.65 | 0.56 | 0.533 | 0.589 | 0.423 | 0.325
NCI-H727 | 0.48 | 0.533 | 0.466 | 0.604 | 0.363 | 0.304 | 0.299 | 0.484 | 0.57 | 0.553 | 0.408 | 0.657 | 0.58 | 0.461 | 0.344 | 0.361 | 0.373 | 0.401 | 0.307 | 0.208
NCI-H838 | 0.603 | 0.859 | 0.901 | 0.937 | 0.311 | 0.351 | 0.4 | 0.381 | 0.335 | 0.326 | 0.354 | 0.366 | 0.319 | 0.467 | 0.413 | 0.527 | 0.469 | 0.459 | 0.792 | 0.464
NCI-H1355 | 0.663 | 0.66 | 0.468 | 0.547 | 0.365 | 0.332 | 0.238 | 0.372 | 0.371 | 0.348 | 0.3 | 0.345 | 0.362 | 0.336 | 0.361 | 0.423 | 0.274 | 0.3 | 0.739 | 0.287
NCI-H1395 | 1.11 | 1.08 | 1.3 | 0.928 | 0.605 | 0.581 | 0.602 | 0.577 | 0.604 | 0.613 | 0.445 | 0.669 | 0.601 | 0.946 | 0.976 | 1.01 | 0.98 | 1.07 |  | 
NCI-H1437 | 0.877 | 0.897 | 1.1 | 1.16 | 0.432 | 0.399 | 0.403 | 0.493 | 0.862 | 0.897 | 0.793 | 0.927 | 1.01 | 0.596 | 0.593 | 0.545 | 0.453 | 0.531 | 1.15 | 0.466
NCI-H1651 | 0.916 | 0.947 | 0.998 | 0.921 | 0.495 | 0.706 | 0.524 | 0.728 | 0.615 | 0.724 | 0.65 | 0.66 | 0.733 | 0.818 | 0.833 | 0.861 | 0.837 | 0.868 | 1.06 | 0.628
NCI-H1666 | 0.94 | 0.814 | 0.915 | 0.616 | 0.552 | 0.322 | 0.272 | 0.26 | 0.853 | 0.914 | 0.842 | 0.729 | 0.818 | 0.987 | 0.832 | 0.901 | 0.857 | 0.925 | 0.805 | 0.318

Source: the supplement of paper PMC10307832
